According to US6576668B1, “Remedies for arthrosis deformans” (Santen Pharmaceutical Co., Ltd., priority 1999, dated 2003):

Columns and labels:
[1] = system: MMP-3 production of chondrocytes; test: MMP-3 production of IL-1β-treated chondrocytes (MMP-3 activity in culture supernatant); assay type: cell-based; details: Oryctolagus cuniculus, Chondrocyte, 48 h, rabbit chondrocytes, IL-1β 1 ng/ml, two days culture, average of three samples, read-out: Production inhibition rate (%) (MMP-3)
Source text: In order to study utility of the present compound, actions of the present compound on MMP-3 production and degradation of proteoglycan after IL-1β treatment were studied by using chondrocytes separated from femurs of rabbit knee joints according to the report of Nose et al. (J. Rheumatology, 24, 550-554 (1997)). The action on MMP-3 production was studied by measuring MMP-3 activity. The action on degradation of proteoglycan was studied by measuring glycosaminoglycan (GAG) being a degradation product of proteoglycan. Femurs of knee joints of male Japanese white rabbits were enucleated. Surface cartilage of the femur was sliced into small pieces, and then tissues were dissociated by enzyme treatment to prepare chondrocytes. A mammal cell culture basal medium D-MEM (Dulbecco's Modified Eagle Medium, produced by Gibco Co., Ltd.) containing β-ketoglutaric acid (5 μg/ml), L-ascorbic acid (50 μg/ml), lactoalbumin hydrolyzate (0.2 mg/ml), penicillin (100 U/ml) and streptomycin (100 μg/ml) (hereinafter referred to as “medium A”) was prepared. […] A culture supernatant was collected, and MMP-3 activity in the supernatant was measured with MMP-3 assay Kit (produced by Yagai Co., Ltd.). […]

[2] = system: mobility of knee joint, rabbit-immobilized models; test: Improvement effect on mobility of knee joint in rabbit-immobilized models; assay type: in vivo, NZW rabbits; details: for Mobility of knee joint (degree): measured on 29th day, control 42, average of ten samples
Source text: In order to study in vivo effects of the present compound on osteoarthritis, an improvement effect on a mobility of a knee joint was investigated by using rabbit-immobilized models. A test compound was suspended in a 1% aqueous methyl cellulose solution to prepare test compound solutions having desired concentrations. Knee joints of right hind paws of NZW rabbits (13 weeks old, body weight: 2.97 to 3.27 kg) were fixed in an extended position with plaster bandages under sodium pentobarbital (25 mg/kg) anesthesia. Administering orally the test compound (amount of liquid to be administered: 10 ml/kg) to the rabbits for four weeks, the rabbits were sacrificed by exsanguination on the 29th day, and then mobilities of the knee joints were measured. A similar experiment was carried out by using a 1% aqueous methyl cellulose solution (10 ml/kg) as a control instead of the test compound. The mobility of the knee joint was determined from a difference between a maximum flection angle obtained when a paw joint of the rabbit was vertically loaded with a load of 400 g and a maximum extension angle.

[3] = system: degradation of proteoglycan in chondrocytes; test: Degradation of proteoglycan in IL-1β-treated chondrocytes (GAG concentration in supernatant); assay type: cell-based; details: Oryctolagus cuniculus, Chondrocyte, 48 h, rabbit chondrocytes, IL-1β 1 ng/ml, two days culture, average of three samples, read-out: Degradation inhibition rate (%) (proteoglycan)
Source text: In order to study utility of the present compound, actions of the present compound on MMP-3 production and degradation of proteoglycan after IL-1β treatment were studied by using chondrocytes separated from femurs of rabbit knee joints according to the report of Nose et al. (J. Rheumatology, 24, 550-554 (1997)). The action on MMP-3 production was studied by measuring MMP-3 activity. The action on degradation of proteoglycan was studied by measuring glycosaminoglycan (GAG) being a degradation product of proteoglycan. Femurs of knee joints of male Japanese white rabbits were enucleated. Surface cartilage of the femur was sliced into small pieces, and then tissues were dissociated by enzyme treatment to prepare chondrocytes. A mammal cell culture basal medium D-MEM (Dulbecco's Modified Eagle Medium, produced by Gibco Co., Ltd.) containing β-ketoglutaric acid (5 μg/ml), L-ascorbic acid (50 μg/ml), lactoalbumin hydrolyzate (0.2 mg/ml), penicillin (100 U/ml) and streptomycin (100 μg/ml) (hereinafter referred to as “medium A”) was prepared. […] A GAG concentration in the supernatant was measured according to the method of Farndale et al. (Biochim. Biophys. Acta, 883, 173-177 (1986)). […]

SMILES: CC(C)(S)C(=O)N[C@@H](CS)C(=O)O [Bucillamine, bucillamine]
- inhibition at 3 µM [1]: 28%
- Mobility of knee joint (degree) ([2]; 10 mg/kg orally for four weeks): 46 degree
- Mobility of knee joint (degree) ([2]; 30 mg/kg orally for four weeks): 48 degree
- Mobility of knee joint (degree) ([2]; 100 mg/kg orally for four weeks): 53 degree
- Effect on mobility of the rabbit knee joint (in words) ([2]; 10 to 100 mg/kg orally for four weeks): improves the mobility of the rabbit knee joint dose-dependently
- inhibition at 3 µM [3]: 19%
